From US20130143840A1, “HEPARAN SULFATE REPLACEMENT THERAPY” (priority 2010, published 2013)
Entries after “also recorded” stand apart in the source; their conditions may differ.

Tests used:
isolated islets = assay: Heparan sulfate of islets isolated with free radical scavengers, Alcian blue staining; parameters: species or system mouse; conditions: combined: donors pretreated with BHA 120 mg/kg i.p. and islets isolated in presence of DMTU 50 mM
Description: Transplantation of pancreatic islets is a well established therapeutic approach for treating Type I diabetes in animals and patients. However, recovery of fully functional islets is crucial if successful transplantation is to occur, irrespective of the problems associated with the recipient's immune response against the allograft. Based on the data described herein, preservation of intra-islet heparan sulfate during islet isolation is an important factor in ensuring that normal islet function is retained. […] In fact, following isotransplantation intra-islet heparan sulfate was still depleted 3 days after transplantation but returned to normal levels 7 days post-transplant (FIG. 13). […] These observations indicate that a combination of heparan sulfate and free radical scavengers could be used to preserve beta cell heparan sulfate during islet isolation.

heparanase = target: T1, heparanase (Homo sapiens, UniProt Q9Y251); assay: Heparanase inhibitory activity (Freeman and Parish 1997 assay); format: biochemical
T1 sequence (Q9Y251 158-543 limits assumed): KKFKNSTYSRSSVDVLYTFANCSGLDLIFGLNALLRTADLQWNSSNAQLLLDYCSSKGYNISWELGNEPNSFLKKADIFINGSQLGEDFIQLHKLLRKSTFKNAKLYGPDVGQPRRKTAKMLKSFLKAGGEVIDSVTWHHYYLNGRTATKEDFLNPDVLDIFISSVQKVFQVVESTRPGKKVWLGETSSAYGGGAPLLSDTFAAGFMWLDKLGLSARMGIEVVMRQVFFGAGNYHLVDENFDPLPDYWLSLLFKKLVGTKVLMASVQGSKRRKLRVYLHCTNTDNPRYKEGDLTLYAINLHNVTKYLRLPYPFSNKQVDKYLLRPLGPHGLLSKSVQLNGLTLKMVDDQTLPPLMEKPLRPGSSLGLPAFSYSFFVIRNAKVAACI
T1 sequence (Q9Y251 36-109 limits assumed): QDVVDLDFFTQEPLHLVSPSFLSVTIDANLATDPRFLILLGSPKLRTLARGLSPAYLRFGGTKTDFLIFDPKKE

islet beta cells [1] = assay: Hydrogen peroxide (ROS)-induced beta cell death after culture, Sytox green uptake; format: cell-based, mouse; conditions: for Resistance to H2O2 (ROS): then 30% H2O2 for 5 min; for ability to retain beta cell viability and induce ROS resistance (in words): summary of Table 3
[2] = tested on: isolated BALB/c islet beta cells; assay: Culture-induced death of isolated islet beta cells, Sytox green uptake by flow cytometry; format: cell-based, mouse; conditions: for Viability (%): untreated control 25-30% viability
Description: (§1) Pancreatic islets were isolated from non-diabetic BALB/c mice and dissociated into a single cell suspension (>90% beta cells) by Dispase digestion. Following 2 days culture in standard tissue culture medium 62% of the beta cells were dead, based on uptake of the fluorescent DNA binding dye, Sytox green (FIG. 4, upper panels). […] In the presence of heparin the highly viable Calcein^+, PI^−population of beta cells was increased from 25% to 86%, the dead population. (Calcein^−, PI^+) reduced from 18% to 1% and the apoptotic population (Calcein^+, PI^+) improved from 52% to 6%. […] Table 1 provides a statistical analysis of the data showing that heparin, highly sulfated heparan sulfate (HS^hi) and PI-88 can protect mouse beta cells from culture-induced cell death.
(§2) The impact of heparin treatment on beta cell viability was also independent of the source of heparin (FIG. 8a) and, based on viable cell numbers, was not observed after 1 h but did occur after continuous culture with heparin for 1-2 days (FIG. 8b).

islet beta cells [3] = assay: Insulin content of beta cells from islets isolated in the presence of heparin, flow cytometry; format: cell-based, mouse; conditions: heparin 50 μg/ml in the islet isolation medium
Protocol: This deficiency in intra-islet heparan sulfate persisted for at least 3 days after transplantation of the islets into histocompatible recipients, normal heparan sulfate levels only being regained 7 days post-transplantation (FIG. 13). Inclusion of heparin (50 μg/ml) in the islet isolation medium improved the insulin content of the islet beta cells 2-fold (FIG. 14).

[4] = tested on: isolated BALB/c islet beta cells; assay: Beta cell viability by Calcein-AM / propidium iodide staining, flow cytometry; format: cell-based, mouse; conditions: 50 μg/ml, 2 days culture
Description: as §1

islet beta cells [5] = assay: Intracellular insulin content of cultured beta cells; format: cell-based, mouse; conditions: 50 μg/ml, 2 days culture
Protocol: Comparison of the ability of HS^hi (50 μg/ml) and undersulfated HS(HS^lo, 50 μg/ml) to protect beta cells from 2 day culture-induced cell death, as shown by Sytox green uptake (upper panels). Lower panels depict the intracellular insulin content (green histograms) of the different preparations of cultured islet cells. Serum control (red histograms) and islet cell autofluorescence (black histograms) are also shown. 85-88% of the cultured islet cells were insulin^+ beta cells.
as §2

[6] = 50 μg/ml, 2 days culture, Sytox green

Compound | Hpse inhibition (heparanase) | Resistance to H2O2 (ROS) (islet beta cells [1]; 50 μg/ml, 2 days culture) | Viability (%) [2, 6] [%] | also measured
COc1ccc(O)c(C(C)(C)C)c1 [BHA, butylated hydroxyanisole] |  |  |  | Alcian blue staining for heparan sulfate of isolated islets (in words) (isolated islets): increased
CNC(=S)NC [DMTU, dimethylthiourea] |  |  |  | Alcian blue staining for heparan sulfate of isolated islets (in words) (isolated islets): increased
Bis-lactobionic acid amide (C12 link) |  | − |  | heparanase inhibition (in words) (heparanase): strong to very strong heparanase inhibitors; protection from peroxide (ROS)-induced cell death / induction of ROS resistance (in words) (islet beta cells [1]; 50 μg/ml, 2 days culture): essentially unable to induce islet beta cells to become ROS resistance
Chondroitin sulfate A | ± | − | 50 | 
Chondroitin sulfate C | − | − | 32 | 
Chondroitin sulfate D | ± | − | 32 | 
Dextran sulfate | ++ | ++++ |  | ability to retain beta cell viability and induce ROS resistance (in words) (islet beta cells [1]; 50 μg/ml, 2 days culture): induced high beta cell viability and ROS resistance
Heparin |  |  |  | beta cell survival at 5 μg/ml (in words) ([2]; 5 μg/ml, 2 days culture): equally active; also recorded: preserved beta cell survival; protection from culture-induced cell death / beta cell survival (in words) [2, 6]: dramatically enhanced; % dead beta cells in culture (Sytox green) ([2]; heparin 50 μg/ml co-culture, controls 72.5% dead): 5.3%; insulin content of islet beta cells, increase over control (islet beta cells [3]): 2 fold; dead population (Calcein−, PI+) ([4]; control 18%): 1%; Calcein+, PI− population of beta cells (highly viable) ([4]; control 25%): 86%; apoptotic population (Calcein+, PI+) ([4]; control 52%): 6%; % beta cells Calceln − PI− (cell debris) ([4]; n = 3-5/group): 9.75 ± 1.9%; % viable after hydrogen peroxide treatment (islet beta cells [1]; 2 days culture with 50 μg/ml): 95%; % cell death following hydrogen peroxide treatment (islet beta cells [1]; heparin 50 μg/ml co-culture, freshly isolated cells 96.1% cell death): 5.0%; change in the insulin content of cultured beta cells (in words) (islet beta cells [5]): little or no change

Continued, in another order:

Hpse inhibition (heparanase) | Compound | Resistance to H2O2 (ROS) (islet beta cells [1]; 50 μg/ml, 2 days culture) | Viability (%) [2, 6] [%] | also measured
− | Chitosan | − | 30 | 
− | Chondroitin sulfate B | − | 46 | 
+++ | Maltopentaose sulfate | ++++ |  | ability to retain beta cell viability and induce ROS resistance (in words) (islet beta cells [1]; 50 μg/ml, 2 days culture): induced high beta cell viability and ROS resistance
+++ | O-α-D-Glucopyranosyl-{(1→4)—O-α-D-glucopyranosyl}4-(1→4)-D-glucopyranose sulfate [Maltohexaose sulfate] | ++++ |  | ability to retain beta cell viability and induce ROS resistance (in words) (islet beta cells [1]; 50 μg/ml, 2 days culture): induced high beta cell viability and ROS resistance
